Measurements reported in patent US20250353873A1, “COMPOUNDS AND METHODS FOR MODULATING APOE EXPRESSION” (Ionis Pharmaceuticals, Inc., priority 2024, published 2025).
Strand notation (5' to 3'): a small letter for the sugar, then the base; units joined by * are phosphorothioate-linked, units joined directly phosphodiester-linked; [ ] holds rarer units or linkages, { } end groups; capitals alone tell only the bases. [ms] = mesyl phosphoramidate linkage; e = 2'-O-(2-methoxyethyl) (MOE); k = constrained ethyl (cEt); [5mC] = 5-methylcytosine; d = 2'-deoxy (DNA)

Assays:
human APOE RNA [1] = assay: Activity in APOE C57BL/6NTac-Apoeem7250 knock-in mice, single ICV bolus, 8 weeks (Example 11); format: in vivo; settings: single ICV bolus 300 μg, 8 weeks post treatment, normalized to mouse Ppia
Outline: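 Cortical and spinal cord human APOE RNA quantified by RT-qPCR 8 weeks after a single 300 μg ICV dose in knock-in mice, Ppia-normalized. Values are percent of levels in PBS-treated animals.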

human APOE RNA [2] = assay: Dose-dependent inhibition of human APOE RNA in differentiated SH-SY5Y cells, free uptake, 5 days (Example 5); format: cell-based; settings: 5 days (Table 14)
Outline: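 APOE RNA, measured by RTS3073 primer probe set and normalized to human PPIA, is reported as % of untreated control cells, with IC50 fitted. Cells were differentiated SH-SY5Y at 10,000/well, given modified oligonucleotide at several concentrations by free uptake for 5 days.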

human APOE RNA [3] = assay: Activity in APOE C57BL/6NTac-Apoeem7250 knock-in mice, single ICV bolus, 16 weeks (Example 12); format: in vivo; settings: single ICV bolus 300 μg, 16 weeks post treatment, normalized to mouse Ppia
Outline: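 A single 300 μg intracerebroventricular dose was given, with PBS-treated mice as reference; cortical and spinal cord tissue was taken 16 weeks later. RT-qPCR quantified human APOE RNA, Ppia-normalized, expressed relative to PBS animals (% control).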

human APOE RNA [4] = assay: Activity in APOE C57BL/6NTac-Apoeem7250 knock-in mice, single ICV bolus, 4 weeks (Example 10); format: in vivo; settings: single ICV bolus 300 μg, 4 weeks post treatment, normalized to mouse Ppia
Outline: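 Human APOE RNA, quantified by real-time RT-PCR with RTS3073 and normalized to mouse Ppia, was read in cortical brain and spinal cord 4 weeks post dosing. Dosing was a single ICV bolus of 300 μg per knock-in mouse; values are % of PBS-treated animals.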

human APOE RNA [5] = assay: Activity in APOE C57BL/6NTac-Apoeem7250 knock-in mice, single ICV bolus, 20 weeks (Example 13); format: in vivo; settings: single ICV bolus 300 μg, 20 weeks post treatment, normalized to mouse Ppia
Outline: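 Cortical and spinal cord RNA was assayed by real-time RT-PCR for human APOE, normalized to mouse Ppia and reported as percent of PBS controls. Tissue was taken twenty weeks after one 300 μg intracerebroventricular bolus in APOE knock-in mice, 4 per group.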

human APOE RNA [6] = assay: Dose-dependent inhibition of human APOE RNA in HepG2 cells, electroporation, 50,000 cells per well, RT-PCR normalized to GAPDH (Example 4, Tables 8-10); format: cell-based; settings: HepG2 cells, electroporation, Table 8; for APOE RNA (% UTC) 5 nM / APOE RNA (% UTC) 13 nM / APOE RNA (% UTC) 33 nM / APOE RNA (% UTC) 82 nM / APOE RNA (% UTC) 205 nM / APOE RNA (% UTC) 512 nM / IC50: 24-hour treatment; for APOE RNA (% UTC) 1,280 nM: 24-hour treatment, 1,280 nM; for APOE RNA (% UTC) 3,200 nM: 24-hour treatment, 3,200 nM; for APOE RNA (% UTC) 8,000 nM: 24-hour treatment, 8,000 nM; for APOE RNA (% UTC) 20,000 nM: 24-hour treatment, 20,000 nM; for IC50: reduction of human APOE RNA
Outline: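 Readout is percent APOE RNA versus untreated controls, measured by RT-PCR (primer probe set RTS3073) and normalized to human GAPDH. Modified oligonucleotides were delivered by electroporation at varying doses into HepG2 cells plated at 50,000 per well.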

| Substance | APOE RNA (% control) Cortex (human APOE RNA [1]) | APOE RNA (% control) Spinal Cord (human APOE RNA [1]) | APOE RNA (% UTC) (human APOE RNA [2]; 5 nM) | APOE RNA (% UTC) (human APOE RNA [2]; 13 nM) | APOE RNA (% UTC) (human APOE RNA [2]; 33 nM) | APOE RNA (% UTC) (human APOE RNA [2]; 82 nM) | APOE RNA (% UTC) (human APOE RNA [2]; 205 nM) | APOE RNA (% UTC) (human APOE RNA [2]; 512 nM) | APOE RNA (% UTC) (human APOE RNA [2]; 1,280 nM) | APOE RNA (% UTC) (human APOE RNA [2]; 3,200 nM) | APOE RNA (% UTC) (human APOE RNA [2]; 8,000 nM) | APOE RNA (% UTC) (human APOE RNA [2]; 20,000 nM) | IC50 (human APOE RNA [2]) | APOE RNA (% control) Cortex (human APOE RNA [3]) | APOE RNA (% control) Spinal Cord (human APOE RNA [3]) | APOE RNA (% control) Cortex (human APOE RNA [4]) | APOE RNA (% control) Spinal Cord (human APOE RNA [4]) | APOE RNA (% control) Cortex (human APOE RNA [5]) | APOE RNA (% control) Spinal Cord (human APOE RNA [5]) | APOE RNA (% UTC) 5 nM (human APOE RNA [6]) | further results |
| --- | --- | --- | --- | --- | --- | --- | --- | --- | --- | --- | --- | --- | --- | --- | --- | --- | --- | --- | --- | --- | --- |
| 1778128: modified oligonucleotide complementary to human APOE RNA (eA*e[5mC]eTeTkGkG*dT*dG[ms]dA[ms]dA*dT*d[5mC]*dT*dT*dT*dA[ms]kTeT*eA*eA; antisense) [compound 1778128] | 27 % control | 25 % control | 91 % UTC | 51 % UTC | 99 % UTC | 63 % UTC | 74 % UTC | 32 % UTC | 30 % UTC | 40 % UTC | 33 % UTC | 23 % UTC | 530 nM | 34 % control | 22 % control | 31 % control | 40 % control | 60 % control | 22 % control | 81 % UTC | APOE RNA (% UTC) 13 nM (human APOE RNA [6]): 83 % UTC; APOE RNA (% UTC) 33 nM (human APOE RNA [6]): 66 % UTC; APOE RNA (% UTC) 82 nM (human APOE RNA [6]): 53 % UTC; APOE RNA (% UTC) 205 nM (human APOE RNA [6]): 39 % UTC; APOE RNA (% UTC) 512 nM (human APOE RNA [6]): 28 % UTC; APOE RNA (% UTC) 1,280 nM (human APOE RNA [6]): 22 % UTC; APOE RNA (% UTC) 3,200 nM (human APOE RNA [6]): 9 % UTC; APOE RNA (% UTC) 8,000 nM (human APOE RNA [6]): 8 % UTC; APOE RNA (% UTC) 20,000 nM (human APOE RNA [6]): 5 % UTC; IC50 (human APOE RNA [6]): 100 nM |
| 1785598: modified oligonucleotide complementary to human APOE RNA (k[5mC]*kT*kT*dG[ms]dG[ms]dT[ms]dG[ms]dA[ms]dA[ms]dT*d[5mC]*dT*dT*dT*dA*dT[ms]kT*kA*dA[ms]kA; antisense) [compound 1785598] | 23 % control | 16 % control | 72 % UTC | 59 % UTC | 90 % UTC | 57 % UTC | 59 % UTC | 39 % UTC | 23 % UTC | 23 % UTC | 9 % UTC | 11 % UTC | 180 nM | 36 % control | 24 % control | 29 % control | 40 % control | 72 % control | 30 % control | 112 % UTC | APOE RNA (% UTC) 13 nM (human APOE RNA [6]): 109 % UTC; APOE RNA (% UTC) 33 nM (human APOE RNA [6]): 110 % UTC; APOE RNA (% UTC) 82 nM (human APOE RNA [6]): 95 % UTC; APOE RNA (% UTC) 205 nM (human APOE RNA [6]): 70 % UTC; APOE RNA (% UTC) 512 nM (human APOE RNA [6]): 73 % UTC; APOE RNA (% UTC) 1,280 nM (human APOE RNA [6]): 33 % UTC; APOE RNA (% UTC) 3,200 nM (human APOE RNA [6]): 21 % UTC; APOE RNA (% UTC) 8,000 nM (human APOE RNA [6]): 8 % UTC; APOE RNA (% UTC) 20,000 nM (human APOE RNA [6]): 9 % UTC; IC50 (human APOE RNA [6]): 840 nM |
| 1778111: modified oligonucleotide complementary to human APOE RNA (eA*e[5mC]eTeTeG*kG*dT*dG[ms]dA[ms]dA*dT*d[5mC]*dT*dT*dT*dA[ms]eTeT*eA*eA; antisense) [compound 1778111] | 41 % control | 17 % control | 67 % UTC | 68 % UTC | 41 % UTC | 41 % UTC | 32 % UTC | 62 % UTC | 59 % UTC | 43 % UTC | 25 % UTC | 17 % UTC | 110 nM | 49 % control | 27 % control | 34 % control | 53 % control | 59 % control | 25 % control | 75 % UTC | APOE RNA (% UTC) 13 nM (human APOE RNA [6]): 96 % UTC; APOE RNA (% UTC) 33 nM (human APOE RNA [6]): 73 % UTC; APOE RNA (% UTC) 82 nM (human APOE RNA [6]): 61 % UTC; APOE RNA (% UTC) 205 nM (human APOE RNA [6]): 53 % UTC; APOE RNA (% UTC) 512 nM (human APOE RNA [6]): 44 % UTC; APOE RNA (% UTC) 1,280 nM (human APOE RNA [6]): 27 % UTC; APOE RNA (% UTC) 3,200 nM (human APOE RNA [6]): 17 % UTC; APOE RNA (% UTC) 8,000 nM (human APOE RNA [6]): 12 % UTC; APOE RNA (% UTC) 20,000 nM (human APOE RNA [6]): 9 % UTC; IC50 (human APOE RNA [6]): 240 nM |
